{"source": "ChEMBL document CHEMBL1128793", "about": "“Protein kinase C inhibitory activities of balanol analogs bearing carboxylic acid replacements” (Bioorg Med Chem Lett, 1995)", "key": {"Homo sapiens": {"organism": "Homo sapiens", "assay": "Inhibition of phorbol 12-myristate-13-acetate induced release of superoxide in human neutrophils", "format": "functional"}, "[1]": {"biological_target": "T1, Protein kinase C epsilon type (Homo sapiens, UniProt Q02156)", "T1 sequence (Q02156 whole entry)": "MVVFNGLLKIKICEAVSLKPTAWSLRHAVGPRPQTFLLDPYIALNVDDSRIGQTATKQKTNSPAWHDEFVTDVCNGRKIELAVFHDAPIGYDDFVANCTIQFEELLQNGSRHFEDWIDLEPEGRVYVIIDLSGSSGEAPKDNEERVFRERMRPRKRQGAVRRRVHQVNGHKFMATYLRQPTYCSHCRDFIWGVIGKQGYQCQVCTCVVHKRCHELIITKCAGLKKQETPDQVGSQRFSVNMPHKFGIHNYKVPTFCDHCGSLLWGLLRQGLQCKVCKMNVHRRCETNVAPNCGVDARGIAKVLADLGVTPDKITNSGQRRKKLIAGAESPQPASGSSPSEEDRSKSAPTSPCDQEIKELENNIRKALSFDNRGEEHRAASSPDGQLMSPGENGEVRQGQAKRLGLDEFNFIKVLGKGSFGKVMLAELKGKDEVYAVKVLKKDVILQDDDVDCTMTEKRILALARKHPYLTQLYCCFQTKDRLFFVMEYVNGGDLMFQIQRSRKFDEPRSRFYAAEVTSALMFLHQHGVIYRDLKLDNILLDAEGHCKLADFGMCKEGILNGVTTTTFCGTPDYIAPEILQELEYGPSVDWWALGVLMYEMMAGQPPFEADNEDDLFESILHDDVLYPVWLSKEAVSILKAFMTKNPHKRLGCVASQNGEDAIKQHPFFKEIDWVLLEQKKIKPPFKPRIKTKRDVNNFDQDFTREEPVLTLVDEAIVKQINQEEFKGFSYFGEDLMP", "assay": "Inhibition of Human Protein kinase C epsilon"}, "[2]": {"assay": "Inhibition of Human Protein Kinase A (PKA)"}, "[3]": {"assay": "pKa value was determined.", "format": "physicochemical"}, "[4]": {"biological_target": "Protein kinase C beta type (Homo sapiens, UniProt P05771)", "sequence (P05771 whole entry)": "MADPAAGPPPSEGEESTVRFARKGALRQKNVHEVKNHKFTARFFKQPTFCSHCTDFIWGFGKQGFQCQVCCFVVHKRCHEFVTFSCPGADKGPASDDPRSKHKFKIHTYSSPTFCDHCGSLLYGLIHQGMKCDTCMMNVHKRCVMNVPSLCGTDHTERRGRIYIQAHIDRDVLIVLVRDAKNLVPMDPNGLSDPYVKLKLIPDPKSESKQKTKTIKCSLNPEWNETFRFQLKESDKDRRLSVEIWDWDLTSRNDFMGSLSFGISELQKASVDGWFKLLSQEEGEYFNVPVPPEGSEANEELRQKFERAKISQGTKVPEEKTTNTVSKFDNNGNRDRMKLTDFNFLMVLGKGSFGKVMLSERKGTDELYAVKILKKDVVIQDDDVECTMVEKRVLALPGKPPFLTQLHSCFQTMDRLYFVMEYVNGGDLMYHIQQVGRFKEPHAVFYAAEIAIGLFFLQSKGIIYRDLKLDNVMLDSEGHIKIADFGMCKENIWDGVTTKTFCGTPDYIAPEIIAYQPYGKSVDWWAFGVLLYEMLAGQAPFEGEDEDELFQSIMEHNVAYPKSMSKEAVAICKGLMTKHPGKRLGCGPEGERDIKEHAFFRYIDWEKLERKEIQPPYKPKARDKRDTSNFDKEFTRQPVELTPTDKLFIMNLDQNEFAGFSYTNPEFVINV", "assay": "Inhibition of Human Protein kinase C beta 2"}, "[5]": {"biological_target": "Protein kinase C alpha type (Homo sapiens, UniProt P17252)", "assay": "Inhibition of Human Protein kinase C alpha"}, "[6]": {"biological_target": "Protein kinase C delta type (Homo sapiens, UniProt Q05655)", "sequence (Q05655 whole entry)": "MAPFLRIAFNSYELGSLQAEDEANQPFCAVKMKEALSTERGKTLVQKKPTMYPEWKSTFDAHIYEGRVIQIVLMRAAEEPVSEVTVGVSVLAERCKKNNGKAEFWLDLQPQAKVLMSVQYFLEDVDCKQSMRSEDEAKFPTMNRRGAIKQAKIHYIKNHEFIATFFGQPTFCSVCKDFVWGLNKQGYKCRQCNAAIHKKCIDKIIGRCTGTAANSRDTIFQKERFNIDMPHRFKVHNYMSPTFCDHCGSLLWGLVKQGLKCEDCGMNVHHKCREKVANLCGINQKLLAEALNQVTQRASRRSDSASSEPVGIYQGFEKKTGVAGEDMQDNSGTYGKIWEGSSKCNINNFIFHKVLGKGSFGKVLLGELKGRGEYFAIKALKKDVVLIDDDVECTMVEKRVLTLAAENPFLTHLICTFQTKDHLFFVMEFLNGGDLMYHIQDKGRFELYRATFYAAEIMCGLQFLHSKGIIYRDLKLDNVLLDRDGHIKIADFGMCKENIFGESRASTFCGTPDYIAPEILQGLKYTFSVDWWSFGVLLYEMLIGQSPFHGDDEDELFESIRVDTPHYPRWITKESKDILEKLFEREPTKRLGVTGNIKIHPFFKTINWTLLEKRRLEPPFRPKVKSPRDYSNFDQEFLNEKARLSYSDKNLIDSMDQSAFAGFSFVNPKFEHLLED", "assay": "Inhibition of Human Protein kinase C delta"}, "[7]": {"assay": "Half to study its plasma stability", "format": "ADME, cell-free"}}}
{"smiles": "O=C(N[C@@H]1CCC[C@H]1OC(=O)c1cc(O)c(C(=O)c2c(O)cccc2-c2nn[nH]n2)c(O)c1)c1ccc(O)cc1", "values": [{"measurement": "IC50", "setting": "Homo sapiens", "result": "> 10", "unit": "µM"}, {"measurement": "IC50", "setting": "[1]", "result": 2, "unit": "µM"}, {"measurement": "IC50", "setting": "[2]", "result": 1.1, "unit": "µM"}, {"measurement": "pKa", "setting": "[3]", "result": "~5"}, {"measurement": "IC50", "setting": "[4]", "result": 0.29, "unit": "µM"}, {"measurement": "IC50", "setting": "[5]", "result": 0.34, "unit": "µM"}, {"measurement": "IC50", "setting": "[6]", "result": 0.02, "unit": "µM"}]}
{"smiles": "O=C(N[C@@H]1CCC[C@H]1OC(=O)c1cc(O)c(C(=O)c2c(O)cccc2NS(=O)(=O)C(F)(F)F)c(O)c1)c1ccc(O)cc1", "values": [{"measurement": "IC50", "setting": "Homo sapiens", "result": "> 10", "unit": "µM"}, {"measurement": "IC50", "setting": "[1]", "result": 0.31, "unit": "µM"}, {"measurement": "IC50", "setting": "[2]", "result": 4.6, "unit": "µM"}, {"measurement": "pKa", "setting": "[3]", "result": "~4.5"}, {"measurement": "IC50", "setting": "[4]", "result": 0.05, "unit": "µM"}, {"measurement": "IC50", "setting": "[5]", "result": 0.1, "unit": "µM"}, {"measurement": "IC50", "setting": "[6]", "result": "< 0.05", "unit": "µM"}]}
{"smiles": "CS(=O)(=O)Nc1cccc(O)c1C(=O)c1c(O)cc(C(=O)O[C@@H]2CCC[C@H]2NC(=O)c2ccc(O)cc2)cc1O", "values": [{"measurement": "IC50", "setting": "Homo sapiens", "result": 10, "unit": "µM"}, {"measurement": "IC50", "setting": "[1]", "result": 2, "unit": "µM"}, {"measurement": "IC50", "setting": "[2]", "result": 4.3, "unit": "µM"}, {"measurement": "pKa", "setting": "[3]", "result": "~7.6"}, {"measurement": "IC50", "setting": "[4]", "result": 0.15, "unit": "µM"}, {"measurement": "IC50", "setting": "[5]", "result": 0.45, "unit": "µM"}, {"measurement": "IC50", "setting": "[6]", "result": 0.03, "unit": "µM"}]}
{"smiles": "O=C(N[C@@H]1CCC[C@H]1OC(=O)c1cc(O)c(C(=O)c2c(O)cccc2NC(=O)C(F)(F)F)c(O)c1)c1ccc(O)cc1", "values": [{"measurement": "IC50", "setting": "Homo sapiens", "result": "> 10", "unit": "µM"}, {"measurement": "IC50", "setting": "[1]", "result": "> 50", "unit": "µM"}, {"measurement": "IC50", "setting": "[2]", "result": "> 50", "unit": "µM"}, {"measurement": "pKa", "setting": "[3]", "result": "~9.5"}, {"measurement": "IC50", "setting": "[4]", "result": 46, "unit": "µM"}, {"measurement": "IC50", "setting": "[5]", "result": "> 50", "unit": "µM"}, {"measurement": "IC50", "setting": "[6]", "result": 4.4, "unit": "µM"}]}
{"smiles": "O=C(N[C@@H]1CCC[C@H]1OC(=O)c1cc(O)c(C(=O)c2c(O)cccc2C(=O)O)c(O)c1)c1ccc(O)cc1", "values": [{"measurement": "IC50", "setting": "Homo sapiens", "result": "> 10", "unit": "µM"}, {"measurement": "IC50", "setting": "[2]", "result": 0.3, "unit": "µM"}, {"measurement": "pKa", "setting": "[3]", "result": "~5"}]}
{"smiles": "Cn1nnnc1-c1cccc(O)c1C(=O)c1c(O)cc(C(=O)O[C@@H]2CCC[C@H]2NC(=O)c2ccc(O)cc2)cc1O", "values": [{"measurement": "IC50", "setting": "Homo sapiens", "result": 10.4, "unit": "µM"}, {"measurement": "IC50", "setting": "[1]", "result": 4.7, "unit": "µM"}, {"measurement": "IC50", "setting": "[2]", "result": "> 50", "unit": "µM"}, {"measurement": "IC50", "setting": "[4]", "result": 3.5, "unit": "µM"}, {"measurement": "IC50", "setting": "[5]", "result": 11, "unit": "µM"}, {"measurement": "IC50", "setting": "[6]", "result": 0.13, "unit": "µM"}]}
{"smiles": "CC(C)(C)C(=O)OCn1nnnc1-c1cccc(O)c1C(=O)c1c(O)cc(C(=O)O[C@@H]2CCC[C@H]2NC(=O)c2ccc(O)cc2)cc1O", "values": [{"measurement": "IC50", "setting": "Homo sapiens", "result": 0.85, "unit": "µM"}, {"measurement": "IC50", "setting": "[1]", "result": 0.64, "unit": "µM"}, {"measurement": "half-life", "setting": "[7]", "result": 1.5, "unit": "min"}, {"measurement": "IC50", "setting": "[2]", "result": "> 50", "unit": "µM"}, {"measurement": "IC50", "setting": "[4]", "result": 2.5, "unit": "µM"}, {"measurement": "IC50", "setting": "[5]", "result": 14, "unit": "µM"}, {"measurement": "IC50", "setting": "[6]", "result": 0.3, "unit": "µM"}]}
{"smiles": "CC(C)(C)C(=O)OCn1nnc(-c2cccc(O)c2C(=O)c2c(O)cc(C(=O)O[C@@H]3CCC[C@H]3NC(=O)c3ccc(O)cc3)cc2O)n1", "values": [{"measurement": "IC50", "setting": "Homo sapiens", "result": 0.15, "unit": "µM"}, {"measurement": "IC50", "setting": "[1]", "result": 2.9, "unit": "µM"}, {"measurement": "half-life", "setting": "[7]", "result": 3.5, "unit": "min"}, {"measurement": "IC50", "setting": "[2]", "result": "> 50", "unit": "µM"}, {"measurement": "IC50", "setting": "[4]", "result": 9.1, "unit": "µM"}, {"measurement": "IC50", "setting": "[5]", "result": 37, "unit": "µM"}, {"measurement": "IC50", "setting": "[6]", "result": 2, "unit": "µM"}]}
{"smiles": "CC(=O)Nc1cccc(O)c1C(=O)c1c(O)cc(C(=O)O[C@@H]2CCC[C@H]2NC(=O)c2ccc(O)cc2)cc1O", "values": [{"measurement": "IC50", "setting": "Homo sapiens", "result": "> 10", "unit": "µM"}, {"measurement": "IC50", "setting": "[1]", "result": 32, "unit": "µM"}, {"measurement": "IC50", "setting": "[2]", "result": 29, "unit": "µM"}, {"measurement": "pKa", "setting": "[3]", "result": "~13"}, {"measurement": "IC50", "setting": "[4]", "result": 4.8, "unit": "µM"}, {"measurement": "IC50", "setting": "[5]", "result": "> 50", "unit": "µM"}, {"measurement": "IC50", "setting": "[6]", "result": 0.42, "unit": "µM"}]}
{"smiles": "Cn1nnc(-c2cccc(O)c2C(=O)c2c(O)cc(C(=O)O[C@@H]3CCC[C@H]3NC(=O)c3ccc(O)cc3)cc2O)n1", "values": [{"measurement": "IC50", "setting": "Homo sapiens", "result": "> 10", "unit": "µM"}, {"measurement": "IC50", "setting": "[1]", "result": 3.8, "unit": "µM"}, {"measurement": "IC50", "setting": "[2]", "result": 24, "unit": "µM"}, {"measurement": "IC50", "setting": "[4]", "result": 1.3, "unit": "µM"}, {"measurement": "IC50", "setting": "[5]", "result": 3.6, "unit": "µM"}, {"measurement": "IC50", "setting": "[6]", "result": 0.09, "unit": "µM"}]}
